According to ChEMBL document CHEMBL1201862, “PubChem BioAssay data set” (2004):
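Five concentrations, 48 hours, 96-well plates. GI50 is the concentration that inhibits growth by half.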 Active and inactive are the calls of the source. Rule as the data show it: active = GI50 up to about 1.1 µM and inactive = higher.

Legend:
Assay in all cases: NCI-60 cell line screen, 48 h
Hs-578T = system: Hs-578T
K562 = system: K562
SF-295 = system: SF-295
CCRF-CEM = system: CCRF-CEM
TK-10 = system: TK-10
COLO 205 = system: COLO 205
ACHN = system: ACHN
NCI-H460 = system: NCI-H460
LOX IMVI = system: LOX IMVI
M14 = system: M14
HCT-15 = system: HCT-15
SF-268 = system: SF-268
SNB-75 = system: SNB-75
UO-31 = system: UO-31
HL-60 = system: HL-60
MDA-MB-231 = system: MDA-MB-231
SK-MEL-28 = system: SK-MEL-28
KM12 = system: KM12
NCI-H522 = system: NCI-H522
MOLT-4 = system: MOLT-4
T47D = system: T47D
NCI-H226 = system: NCI-H226
MDA-MB-435 = system: MDA-MB-435
SK-MEL-2 = system: SK-MEL-2
SN12C = system: SN12C
PC-3 = system: PC-3
NCI-H23 = system: NCI-H23
SK-MEL-5 = system: SK-MEL-5
OVCAR-5 = system: OVCAR-5
CAKI-1 = system: CAKI-1
MDA-N = system: MDA-N
SW-620 = system: SW-620
UACC-62 = system: UACC-62
SR = system: SR
UACC-257 = system: UACC-257
IGROV-1 = system: IGROV-1
NCI/ADR-RES = system: NCI/ADR-RES
HOP-62 = system: HOP-62
A549 = system: A549
RPMI-8226 = system: RPMI-8226
EKVX = system: EKVX
MCF7 = system: MCF7
SF-539 = system: SF-539
RXF 393 = system: RXF 393
HCT-116 = system: HCT-116
Malme-3M = system: Malme-3M
DU-145 = system: DU-145
OVCAR-8 = system: OVCAR-8
HT-29 = system: HT-29
OVCAR-3 = system: OVCAR-3
HCC 2998 = system: HCC 2998
SNB-19 = system: SNB-19
BT-549 = system: BT-549
786-0 = system: 786-0
SK-OV-3 = system: SK-OV-3
A498 = system: A498
HOP-92 = system: HOP-92
OVCAR-4 = system: OVCAR-4
U-251 = system: U-251

Compound: Cc1ccc([N+](=O)[O-])cc1S(=O)(=O)Nc1ccc(C2=NOC(c3ccccc3O)C2)cc1 (stereo unspecified)
- GI50 (Hs-578T): 9.98 µM (inactive)
- GI50 (K562): 2.25 µM (inactive)
- GI50 (SF-295): 3.85 µM (inactive)
- GI50 (CCRF-CEM): 8.93 µM (inactive)
- GI50 (TK-10): 18.3 µM (inactive)
- GI50 (COLO 205): 3.54 µM (inactive)
- GI50 (ACHN): 13.1 µM (inactive)
- GI50 (NCI-H460): 4.09 µM (inactive)
- GI50 (LOX IMVI): 9.95 µM (inactive)
- GI50 (M14): 2.19 µM (inactive)
- GI50 (HCT-15): 3.44 µM
- GI50 (SF-268): 8.61 µM (inactive)
- GI50 (SNB-75): 3.6 µM (inactive)
- GI50 (UO-31): < 0.01 µM (active)
- GI50 (HL-60): 2.17 µM (inactive)
- GI50 (MDA-MB-231): 4.5 µM (inactive)
- GI50 (SK-MEL-28): 12.8 µM (inactive)
- GI50 (KM12): 3.16 µM (inactive)
- GI50 (NCI-H522): 1.29 µM (inactive)
- GI50 (MOLT-4): 2.76 µM (inactive)
- GI50 (T47D): 6 µM (inactive)
- GI50 (NCI-H226): 5.82 µM (inactive)
- GI50 (MDA-MB-435): 1.01 µM (active)
- GI50 (SK-MEL-2): 2.74 µM (inactive)
- GI50 (SN12C): 12.3 µM (inactive)
- GI50 (PC-3): 4.74 µM (inactive)
- GI50 (NCI-H23): 10.4 µM (inactive)
- GI50 (SK-MEL-5): 4.68 µM (inactive)
- GI50 (OVCAR-5): 33.4 µM (inactive)
- GI50 (CAKI-1): 9.42 µM (inactive)
- GI50 (MDA-N): 1.56 µM (inactive)
- GI50 (SW-620): 4.18 µM (inactive)
- GI50 (UACC-62): 2.97 µM (inactive)
- GI50 (SR): 0.577 µM (active)
- GI50 (UACC-257): 5.97 µM (inactive)
- GI50 (IGROV-1): 7.43 µM (inactive)
- GI50 (NCI/ADR-RES): 2.54 µM (inactive)
- GI50 (HOP-62): 5.12 µM (inactive)
- GI50 (A549): 4.97 µM (inactive)
- GI50 (RPMI-8226): 4.26 µM (inactive)
- GI50 (EKVX): 17.1 µM (inactive)
- GI50 (MCF7): 3.33 µM (inactive)
- GI50 (SF-539): 4.58 µM (inactive)
- GI50 (RXF 393): 2.26 µM (inactive)
- GI50 (HCT-116): 4.54 µM (inactive)
- GI50 (Malme-3M): 3.95 µM (inactive)
- GI50 (DU-145): 13.3 µM (inactive)
- GI50 (OVCAR-8): 31.2 µM (inactive)
- GI50 (HT-29): 4.61 µM (inactive)
- GI50 (OVCAR-3): 3.72 µM (inactive)
- GI50 (HCC 2998): 7.01 µM (inactive)
- GI50 (SNB-19): 3.31 µM (inactive)
- GI50 (BT-549): 6.27 µM (inactive)
- GI50 (786-0): 8.65 µM (inactive)
- GI50 (SK-OV-3): 15.3 µM (inactive)
- GI50 (A498): 2.84 µM (inactive)
- GI50 (HOP-92): 26.2 µM (inactive)
- GI50 (OVCAR-4): 3 µM (inactive)

Compound: CC(=O)c1ccc(Oc2c3ccccc3nc3ccccc23)cc1
- GI50 (Hs-578T): 8.61 µM (inactive)
- GI50 (K562): 3.41 µM (inactive)
- GI50 (SF-295): 14.6 µM (inactive)
- GI50 (CCRF-CEM): 2.82 µM (inactive)
- GI50 (TK-10): 6.76 µM (inactive)
- GI50 (COLO 205): 2.79 µM (inactive)
- GI50 (ACHN): 4.15 µM (inactive)
- GI50 (NCI-H460): 15.4 µM (inactive)
- GI50 (LOX IMVI): 5.86 µM (inactive)
- GI50 (M14): 4.35 µM (inactive)
- GI50 (HCT-15): 4.01 µM
- GI50 (SF-268): 5.18 µM (inactive)
- GI50 (SNB-75): 16.1 µM (inactive)
- GI50 (U-251): 11.6 µM (inactive)
- GI50 (UO-31): 3.83 µM (inactive)
- GI50 (HL-60): 0.207 µM (active)
- GI50 (MDA-MB-231): 11.6 µM (inactive)
- GI50 (SK-MEL-28): 14.7 µM (inactive)
- GI50 (KM12): 7 µM (inactive)
- GI50 (NCI-H522): 12.2 µM (inactive)
- GI50 (T47D): 3.72 µM (inactive)
- GI50 (NCI-H226): 9.1 µM (inactive)
- GI50 (MDA-MB-435): 3.27 µM (inactive)
- GI50 (SK-MEL-2): 8.59 µM (inactive)
- GI50 (SN12C): 5.08 µM (inactive)
- GI50 (PC-3): 6.89 µM (inactive)
- GI50 (NCI-H23): 22.5 µM (inactive)
- GI50 (SK-MEL-5): 14.9 µM (inactive)
- GI50 (OVCAR-5): 9.68 µM (inactive)
- GI50 (CAKI-1): 4.69 µM (inactive)
- GI50 (MDA-N): 4.27 µM (inactive)
- GI50 (SW-620): 4.33 µM (inactive)
- GI50 (UACC-62): 6.41 µM (inactive)
- GI50 (SR): 1.01 µM (active)
- GI50 (UACC-257): 5.68 µM (inactive)
- GI50 (IGROV-1): 4.89 µM (inactive)
- GI50 (NCI/ADR-RES): 11.3 µM (inactive)
- GI50 (HOP-62): 14.4 µM (inactive)
- GI50 (A549): 9.35 µM (inactive)
- GI50 (RPMI-8226): 2.77 µM (inactive)
- GI50 (EKVX): 17.5 µM (inactive)
- GI50 (MCF7): 3.22 µM (inactive)
- GI50 (SF-539): 2.3 µM (inactive)
- GI50 (RXF 393): 7.91 µM (inactive)
- GI50 (HCT-116): 2.7 µM (inactive)
- GI50 (Malme-3M): 12.6 µM (inactive)
- GI50 (DU-145): 4.5 µM (inactive)
- GI50 (OVCAR-8): 7.83 µM (inactive)
- GI50 (HT-29): 2.73 µM (inactive)
- GI50 (OVCAR-3): 7.53 µM (inactive)
- GI50 (HCC 2998): 9.48 µM (inactive)
- GI50 (SNB-19): 18.7 µM (inactive)
- GI50 (BT-549): 12.5 µM (inactive)
- GI50 (786-0): 3.4 µM (inactive)
- GI50 (SK-OV-3): 15.7 µM (inactive)
- GI50 (A498): 16.1 µM (inactive)
- GI50 (HOP-92): 12.4 µM (inactive)
- GI50 (OVCAR-4): 5.93 µM (inactive)
